Laboratory results reported in patent US9611249B2, “1H-indazole-3-carboxamide compounds as glycogen synthase kinase 3 beta inhibitors” (AZIENDE CHIMICHE RIUNITE ANGELINI FRANCESCO A.C.R.A.F. …, priority 2012, dated 2017).

Experiments:
Type in all cases: biochemical
[1] = target: c-Met kinase (h) (Homo sapiens (Human), UniProt P08581); assay: Kinase selectivity panel: c-Met kinase (h); details: 10 μM in duplicate, read-out: % inhibition of control values
Experimental: (§1) (a) Compounds 1 and 2 were tested against a panel of 60 kinases in order to assess their selectivity. The assays were chosen taking into consideration the diversity of assay families.
(§2) Tested kinases were representative of following kinase sub-families: • protein-serine/threonine kinases; • protein-tyrosine kinases; • other kinases; and • atypical kinases.
(§3) Human recombinant kinases were incubated in the presence of specific peptide substrates plus ATP for different times (10, 15, 30, 60 or 90 minutes) at 22° C. Phosphorylated substrate was detected by LANCE or HTRF technology (CISBIO, MA, USA). The compounds were tested at 10 μM in duplicate.
(§4) The results are expressed as a percentage of inhibition of control specific activity obtained in the presence of the test compounds and are reported in the following Table 5.
(§5) (b) Compounds 3, 8, 29 and 31 were tested against the same panel of 60 kinases under the same conditions described above for compounds 1 and 2.
(§6) The results are expressed as a percent of inhibition of control specific activity obtained in the presence of the test compounds and are reported in the following Table 6.

[2] = target: FGFR4 kinase (h) (Homo sapiens (Human), UniProt P22455); assay: Kinase selectivity panel: FGFR4 kinase (h); details: 10 μM in duplicate, read-out: % inhibition of control values
Experimental: as §1, §2, §3, §4, §5, §6

[3] = target: IGF1R kinase (h) (Homo sapiens (Human), UniProt P08069); assay: Kinase selectivity panel: IGF1R kinase (h); details: 10 μM in duplicate, read-out: % inhibition of control values
Experimental: as §1, §2, §3, §4, §5, §6

[4] = target: IRK (h) (InsR) (Homo sapiens (Human), UniProt P06213); assay: Kinase selectivity panel: IRK (h) (InsR); details: 10 μM in duplicate, read-out: % inhibition of control values
Experimental: as §1, §2, §3, §4, §5, §6

[5] = target: Ret kinase (h) (Homo sapiens (Human), UniProt P07949); assay: Kinase selectivity panel: Ret kinase (h); details: 10 μM in duplicate, read-out: % inhibition of control values
Experimental: as §1, §2, §3, §4, §5, §6

[6] = target: Abl kinase (h) (Homo sapiens (Human), UniProt P00519); assay: Kinase selectivity panel: Abl kinase (h); details: 10 μM in duplicate, read-out: % inhibition of control values
Experimental: as §1, §2, §3, §4, §5, §6

[7] = target: JAK2 (h) (Homo sapiens (Human), UniProt O60674); assay: Kinase selectivity panel: JAK2 (h); details: 10 μM in duplicate, read-out: % inhibition of control values
Experimental: as §1, §2, §3, §4, §5, §6

[8] = target: Fyn kinase (h) (Homo sapiens (Human), UniProt P06241); assay: Kinase selectivity panel: Fyn kinase (h); details: 10 μM in duplicate, read-out: % inhibition of control values
Experimental: as §1, §2, §3, §4, §5, §6

[9] = target: GSK3beta (h) (Homo sapiens (Human), UniProt P49841); assay: Kinase selectivity panel: GSK3beta (h); details: GSK3beta (h); 10 μM in duplicate; read-out: % inhibition of control values
Experimental: as §1, §2, §3, §4, §6

[10] = target: DYRK1a (h) (Homo sapiens (Human), UniProt Q13627); assay: Kinase selectivity panel: DYRK1a (h); details: 10 μM in duplicate, read-out: % inhibition of control values
Experimental: as §1, §2, §3, §4, §5, §6

[11] = target: CDC2/CDK1 (h) (cycB) (Homo sapiens (Human), UniProt P06493); assay: Kinase selectivity panel: CDC2/CDK1 (h) (cycB); details: 10 μM in duplicate, read-out: % inhibition of control values
Experimental: as §1, §2, §3, §4, §5, §6

[12] = target: CDK2 (h) (cycA) (Homo sapiens (Human), UniProt P24941); assay: Kinase selectivity panel: CDK2 (h) (cycA); details: 10 μM in duplicate, read-out: % inhibition of control values
Experimental: as §1, §2, §3, §4, §5, §6

[13] = target: CDK5/p35 (h) (Homo sapiens (Human), UniProt Q00535); assay: Kinase selectivity panel: CDK5/p35 (h); details: 10 μM in duplicate, read-out: % inhibition of control values
Experimental: as §1, §2, §3, §4, §5, §6

[14] = target: ERK1 (h) (Homo sapiens (Human), UniProt P27361); assay: Kinase selectivity panel: ERK1 (h); details: 10 μM in duplicate, read-out: % inhibition of control values
Experimental: as §1, §2, §3, §4, §5, §6

[15] = target: ERK2 (h) (P42mapk) (Homo sapiens (Human), UniProt P28482); assay: Kinase selectivity panel: ERK2 (h) (P42mapk); details: 10 μM in duplicate, read-out: % inhibition of control values
Experimental: as §1, §2, §3, §4, §5, §6

[16] = target: p38delta kinase (h) (Homo sapiens (Human), UniProt O15264); assay: Kinase selectivity panel: p38delta kinase (h); details: 10 μM in duplicate, read-out: % inhibition of control values
Experimental: as §1, §2, §3, §4, §5, §6

[17] = target: DAPK1 (h) (Homo sapiens (Human), UniProt P53355); assay: Kinase selectivity panel: DAPK1 (h); details: 10 μM in duplicate, read-out: % inhibition of control values
Experimental: as §1, §2, §3, §4, §5, §6

[18] = target: Pim2 kinase (h) (Homo sapiens (Human), UniProt Q9P1W9); assay: Kinase selectivity panel: Pim2 kinase (h); details: 10 μM in duplicate, read-out: % inhibition of control values
Experimental: as §1, §2, §3, §4, §5, §6

[19] = target: PhKgamma 2 (h) (Homo sapiens (Human), UniProt P15735); assay: Kinase selectivity panel: PhKgamma 2 (h); details: 10 μM in duplicate, read-out: % inhibition of control values
Experimental: as §1, §2, §3, §4, §5, §6

[20] = target: Pim1 kinase (h) (Homo sapiens (Human), UniProt P11309); assay: Kinase selectivity panel: Pim1 kinase (h); details: 10 μM in duplicate, read-out: % inhibition of control values
Experimental: as §1, §2, §3, §4, §5, §6

[21] = target: Akt1/PKBalpha (h) (Homo sapiens (Human), UniProt P31749); assay: Kinase selectivity panel: Akt1/PKBalpha (h); details: 10 μM in duplicate, read-out: % inhibition of control values
Experimental: as §1, §2, §3, §4, §5, §6

[22] = target: PDK1 (h) (Homo sapiens (Human), UniProt O15530); assay: Kinase selectivity panel: PDK1 (h); details: 10 μM in duplicate, read-out: % inhibition of control values
Experimental: as §1, §2, §3, §4, §5, §6

[23] = target: PKA (h) (Homo sapiens (Human), UniProt P17612); assay: Kinase selectivity panel: PKA (h); details: 10 μM in duplicate, read-out: % inhibition of control values
Experimental: as §1, §2, §3, §4, §5, §6

[24] = target: PKCalpha (h) (Homo sapiens (Human), UniProt P17252); assay: Kinase selectivity panel: PKCalpha (h); details: 10 μM in duplicate, read-out: % inhibition of control values
Experimental: as §1, §2, §3, §4, §5, §6

[25] = target: PKCbeta 1 (h) (Homo sapiens (Human), UniProt P05771); assay: Kinase selectivity panel: PKCbeta 1 (h); details: 10 μM in duplicate, read-out: % inhibition of control values
Experimental: as §1, §2, §3, §4, §5, §6

[26] = target: PKCgamma (h) (Homo sapiens (Human), UniProt P05129); assay: Kinase selectivity panel: PKCgamma (h); details: 10 μM in duplicate, read-out: % inhibition of control values
Experimental: as §1, §2, §3, §4, §5, §6

[27] = target: HGK (h) (MAP4K4) (Homo sapiens (Human), UniProt O95819); assay: Kinase selectivity panel: HGK (h) (MAP4K4); details: 10 μM in duplicate, read-out: % inhibition of control values
Experimental: as §1, §2, §3, §4, §5, §6

[28] = target: DLK1 (h) (MAP3K12) (Homo sapiens (Human), UniProt Q12852); assay: Kinase selectivity panel: DLK1 (h) (MAP3K12); details: 10 μM in duplicate, read-out: % inhibition of control values
Experimental: as §1, §2, §3, §4, §5, §6

[29] = target: IRAK4 (h) (Homo sapiens (Human), UniProt Q9NWZ3); assay: Kinase selectivity panel: IRAK4 (h); details: 10 μM in duplicate, read-out: % inhibition of control values
Experimental: as §1, §2, §3, §4, §5, §6

[30] = target: IKKalpha (h) (Homo sapiens (Human), UniProt O15111); assay: Kinase selectivity panel: IKKalpha (h); details: 10 μM in duplicate, read-out: % inhibition of control values
Experimental: as §1, §2, §3, §4, §5, §6

[31] = target: NEK7 (h) (Homo sapiens (Human), UniProt Q8TDX7); assay: Kinase selectivity panel: NEK7 (h); details: 10 μM in duplicate, read-out: % inhibition of control values
Experimental: as §1, §2, §3, §4, §5, §6

[32] = target: AurA/Aur2 kinase (h) (Homo sapiens (Human), UniProt O14965); assay: Kinase selectivity panel: AurA/Aur2 kinase (h); details: 10 μM in duplicate, read-out: % inhibition of control values
Experimental: as §1, §2, §3, §4, §5, §6

[33] = target: AurB/Aur1 kinase (h) (Homo sapiens (Human), UniProt Q96GD4); assay: Kinase selectivity panel: AurB/Aur1 kinase (h); details: 10 μM in duplicate, read-out: % inhibition of control values
Experimental: as §1, §2, §3, §4, §5, §6

Chain of JAK2 (h) (O60674 whole entry): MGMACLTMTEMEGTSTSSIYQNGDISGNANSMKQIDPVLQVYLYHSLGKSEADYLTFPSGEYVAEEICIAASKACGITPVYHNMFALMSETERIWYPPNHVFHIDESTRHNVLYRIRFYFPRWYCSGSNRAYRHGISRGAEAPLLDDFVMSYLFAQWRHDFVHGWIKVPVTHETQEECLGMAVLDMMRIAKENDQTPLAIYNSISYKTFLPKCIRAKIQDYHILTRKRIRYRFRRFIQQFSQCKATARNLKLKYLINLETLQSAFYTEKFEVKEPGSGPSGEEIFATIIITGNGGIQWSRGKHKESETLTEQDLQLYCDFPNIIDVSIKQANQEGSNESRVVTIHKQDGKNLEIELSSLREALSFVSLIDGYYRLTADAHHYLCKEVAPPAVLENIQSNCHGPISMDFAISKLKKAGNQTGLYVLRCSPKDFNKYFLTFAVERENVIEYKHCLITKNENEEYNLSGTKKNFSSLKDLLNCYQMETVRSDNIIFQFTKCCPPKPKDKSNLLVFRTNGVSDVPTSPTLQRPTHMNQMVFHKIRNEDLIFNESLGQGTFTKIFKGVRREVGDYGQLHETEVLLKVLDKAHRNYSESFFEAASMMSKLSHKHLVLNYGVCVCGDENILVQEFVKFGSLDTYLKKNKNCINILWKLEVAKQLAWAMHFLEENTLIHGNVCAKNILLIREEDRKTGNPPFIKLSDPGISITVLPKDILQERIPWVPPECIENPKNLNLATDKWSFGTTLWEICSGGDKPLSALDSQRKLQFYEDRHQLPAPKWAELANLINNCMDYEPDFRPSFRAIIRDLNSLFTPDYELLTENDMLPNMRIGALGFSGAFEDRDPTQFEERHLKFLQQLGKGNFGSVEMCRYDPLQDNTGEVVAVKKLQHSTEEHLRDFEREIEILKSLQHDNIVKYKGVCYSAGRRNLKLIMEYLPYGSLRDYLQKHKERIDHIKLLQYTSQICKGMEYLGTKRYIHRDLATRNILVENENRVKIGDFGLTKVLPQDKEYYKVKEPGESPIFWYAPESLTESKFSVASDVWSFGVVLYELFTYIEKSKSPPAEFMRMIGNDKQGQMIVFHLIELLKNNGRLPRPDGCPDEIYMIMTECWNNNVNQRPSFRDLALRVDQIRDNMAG
Chain of ERK1 (h) (P27361 whole entry): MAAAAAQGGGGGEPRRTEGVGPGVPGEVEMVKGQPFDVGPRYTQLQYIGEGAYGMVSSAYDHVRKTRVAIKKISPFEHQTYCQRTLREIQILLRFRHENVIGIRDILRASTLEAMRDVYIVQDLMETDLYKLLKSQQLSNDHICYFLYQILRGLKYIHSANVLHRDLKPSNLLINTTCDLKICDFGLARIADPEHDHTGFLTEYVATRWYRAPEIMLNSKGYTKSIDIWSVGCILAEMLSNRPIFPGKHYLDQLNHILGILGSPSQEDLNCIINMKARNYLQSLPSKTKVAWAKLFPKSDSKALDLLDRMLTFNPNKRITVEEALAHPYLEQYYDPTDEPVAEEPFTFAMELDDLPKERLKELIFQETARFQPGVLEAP
Chain of DAPK1 (h) (P53355 whole entry): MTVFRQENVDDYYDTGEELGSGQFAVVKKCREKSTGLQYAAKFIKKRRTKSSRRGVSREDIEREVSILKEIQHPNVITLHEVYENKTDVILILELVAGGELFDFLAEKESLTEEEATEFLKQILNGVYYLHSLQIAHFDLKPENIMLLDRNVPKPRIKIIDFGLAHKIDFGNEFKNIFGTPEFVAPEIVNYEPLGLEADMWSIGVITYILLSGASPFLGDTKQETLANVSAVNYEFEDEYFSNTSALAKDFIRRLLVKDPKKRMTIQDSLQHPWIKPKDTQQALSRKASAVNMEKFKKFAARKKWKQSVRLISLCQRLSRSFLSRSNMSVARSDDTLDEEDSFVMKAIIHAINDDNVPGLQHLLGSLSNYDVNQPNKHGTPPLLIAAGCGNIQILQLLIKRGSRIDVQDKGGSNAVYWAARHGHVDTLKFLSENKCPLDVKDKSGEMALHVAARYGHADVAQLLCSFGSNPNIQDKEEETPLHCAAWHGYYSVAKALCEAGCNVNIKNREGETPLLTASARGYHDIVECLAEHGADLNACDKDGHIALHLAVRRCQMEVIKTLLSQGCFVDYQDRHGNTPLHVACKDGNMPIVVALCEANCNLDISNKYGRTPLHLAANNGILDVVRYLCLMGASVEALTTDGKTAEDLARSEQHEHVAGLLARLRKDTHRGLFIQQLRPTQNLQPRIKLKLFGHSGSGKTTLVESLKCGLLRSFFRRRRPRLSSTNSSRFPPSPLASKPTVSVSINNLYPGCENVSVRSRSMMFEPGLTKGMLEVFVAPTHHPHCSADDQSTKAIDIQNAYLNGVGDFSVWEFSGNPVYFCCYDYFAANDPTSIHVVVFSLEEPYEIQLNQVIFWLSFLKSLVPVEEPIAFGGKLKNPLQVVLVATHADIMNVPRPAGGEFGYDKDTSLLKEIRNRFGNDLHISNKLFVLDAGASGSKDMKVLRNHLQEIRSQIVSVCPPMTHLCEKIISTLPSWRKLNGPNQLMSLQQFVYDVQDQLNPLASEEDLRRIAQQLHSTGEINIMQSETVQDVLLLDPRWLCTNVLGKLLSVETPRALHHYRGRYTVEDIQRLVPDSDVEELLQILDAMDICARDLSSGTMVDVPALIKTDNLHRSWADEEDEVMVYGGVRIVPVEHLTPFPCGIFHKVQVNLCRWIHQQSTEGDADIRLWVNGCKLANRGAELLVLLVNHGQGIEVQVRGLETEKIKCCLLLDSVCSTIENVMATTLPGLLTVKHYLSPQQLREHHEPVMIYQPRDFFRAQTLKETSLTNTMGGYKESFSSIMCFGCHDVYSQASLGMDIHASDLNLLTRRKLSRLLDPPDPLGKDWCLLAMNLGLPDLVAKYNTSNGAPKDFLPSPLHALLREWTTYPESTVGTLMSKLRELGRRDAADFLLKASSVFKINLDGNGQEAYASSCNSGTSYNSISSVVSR
Chain of NEK7 (h) (Q8TDX7 whole entry): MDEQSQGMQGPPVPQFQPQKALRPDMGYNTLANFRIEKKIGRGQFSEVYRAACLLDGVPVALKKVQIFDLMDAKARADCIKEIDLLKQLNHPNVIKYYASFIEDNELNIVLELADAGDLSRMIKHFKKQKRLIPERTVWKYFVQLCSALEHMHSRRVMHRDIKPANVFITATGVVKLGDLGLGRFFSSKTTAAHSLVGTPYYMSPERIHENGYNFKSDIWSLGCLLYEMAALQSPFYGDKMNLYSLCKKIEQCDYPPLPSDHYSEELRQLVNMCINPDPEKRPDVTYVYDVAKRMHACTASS
Chain of Pim2 kinase (h) (Q9P1W9 whole entry): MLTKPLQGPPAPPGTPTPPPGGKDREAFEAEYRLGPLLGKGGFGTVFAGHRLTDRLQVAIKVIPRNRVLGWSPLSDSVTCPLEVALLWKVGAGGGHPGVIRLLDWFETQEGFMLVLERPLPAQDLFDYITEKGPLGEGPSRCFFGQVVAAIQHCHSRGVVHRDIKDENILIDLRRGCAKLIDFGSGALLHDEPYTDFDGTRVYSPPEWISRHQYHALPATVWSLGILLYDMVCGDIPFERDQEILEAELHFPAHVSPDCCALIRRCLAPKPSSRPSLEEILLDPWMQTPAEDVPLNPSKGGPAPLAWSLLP

SMILES | inhibition at 10 µM [1] [%] | inhibition at 10 µM [2] [%] | inhibition at 10 µM [3] [%] | inhibition at 10 µM [4] [%] | inhibition at 10 µM [5] [%] | inhibition at 10 µM [6] [%] | inhibition at 10 µM [7] [%] | inhibition at 10 µM [8] [%] | inhibition at 10 µM [10] [%] | inhibition at 10 µM [11] [%] | inhibition at 10 µM [12] [%] | inhibition at 10 µM [13] [%] | inhibition at 10 µM [14] [%] | inhibition at 10 µM [15] [%] | inhibition at 10 µM [16] [%] | inhibition at 10 µM [17] [%] | inhibition at 10 µM [18] [%] | inhibition at 10 µM [19] [%] | inhibition at 10 µM [20] [%] | inhibition at 10 µM [21] [%] | other results
COCCN1CCC(CNC(=O)c2n[nH]c3ccc(OC)cc23)CC1 [Compound 2, 5-methoxy-N-{[1-(2-methoxyethyl)-piperidin-4-yl]methyl}-1H-indazole-3-carboxamide] | 0 | 0 | 0 | 0 | 0 | 0 | 0 | 3 | 56 | 0 | 11 | 13 | 15 | 46 | 0 | 12 | 4 | 1 | 2 | 4 | inhibition at 10 µM [9]: 90%; inhibition at 10 µM [22]: 6%; inhibition at 10 µM [23]: 2%; inhibition at 10 µM [24]: 0%; inhibition at 10 µM [25]: 1%; inhibition at 10 µM [26]: 0%; inhibition at 10 µM [27]: 23%; inhibition at 10 µM [28]: 0%; inhibition at 10 µM [29]: 8%; inhibition at 10 µM [30]: 0%; inhibition at 10 µM [31]: 0%; inhibition at 10 µM [32]: 1%; inhibition at 10 µM [33]: 6%
COCCN1CCC(CNC(=O)c2n[nH]c3ccc(-c4cccc(F)c4F)cc23)CC1 [Compound 8, 5-(2,3-difluorophenyl)-N-{[1-(2-methoxyethyl)piperidin-4-yl]methyl}-1H-indazole-3-carboxamide] | 7 | 2 | 3 | 9 | 0 | 0 | 23 | 0 | 99 | 80 | 92 | 77 | 66 | 74 | 18 | 47 | 0 | 0 | 17 | 0 | inhibition at 10 µM [22]: 0%; inhibition at 10 µM [23]: 0%; inhibition at 10 µM [24]: 19%; inhibition at 10 µM [25]: 28%; inhibition at 10 µM [26]: 0%; inhibition at 10 µM [27]: 72%; inhibition at 10 µM [28]: 58%; inhibition at 10 µM [29]: 0%; inhibition at 10 µM [30]: 1%; inhibition at 10 µM [31]: 0%; inhibition at 10 µM [32]: 10%; inhibition at 10 µM [33]: 0%
